# Results as given in US8962641B2, “Pyrimidine-substituted pyrrolidine derivatives, pharmaceutical compositions and uses thereof” (Boehringer Ingelheim International GmbH, priority 2013, dated 2015).
# Target: human ACC2 (Homo sapiens (Human), UniProt O00763)
# Assay: ACC2 assay (spectrophotometric 384 well assay, NADH-linked kinetic method)
# Format: biochemical
# Settings: not given
# How it was run: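 Baculovirus/insect-cell human ACC2, anion-exchange purified; ADP formation coupled to pyruvate kinase/lactate dehydrogenase, NADH loss followed at 340 nm, 25° C, 15 min. Final 200 μM NADH and acetyl-CoA, 500 uM ATP; vehicle and no-acetyl-CoA wells set 100% and 0%.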
# Chain of human ACC2 (O00763 129-2458): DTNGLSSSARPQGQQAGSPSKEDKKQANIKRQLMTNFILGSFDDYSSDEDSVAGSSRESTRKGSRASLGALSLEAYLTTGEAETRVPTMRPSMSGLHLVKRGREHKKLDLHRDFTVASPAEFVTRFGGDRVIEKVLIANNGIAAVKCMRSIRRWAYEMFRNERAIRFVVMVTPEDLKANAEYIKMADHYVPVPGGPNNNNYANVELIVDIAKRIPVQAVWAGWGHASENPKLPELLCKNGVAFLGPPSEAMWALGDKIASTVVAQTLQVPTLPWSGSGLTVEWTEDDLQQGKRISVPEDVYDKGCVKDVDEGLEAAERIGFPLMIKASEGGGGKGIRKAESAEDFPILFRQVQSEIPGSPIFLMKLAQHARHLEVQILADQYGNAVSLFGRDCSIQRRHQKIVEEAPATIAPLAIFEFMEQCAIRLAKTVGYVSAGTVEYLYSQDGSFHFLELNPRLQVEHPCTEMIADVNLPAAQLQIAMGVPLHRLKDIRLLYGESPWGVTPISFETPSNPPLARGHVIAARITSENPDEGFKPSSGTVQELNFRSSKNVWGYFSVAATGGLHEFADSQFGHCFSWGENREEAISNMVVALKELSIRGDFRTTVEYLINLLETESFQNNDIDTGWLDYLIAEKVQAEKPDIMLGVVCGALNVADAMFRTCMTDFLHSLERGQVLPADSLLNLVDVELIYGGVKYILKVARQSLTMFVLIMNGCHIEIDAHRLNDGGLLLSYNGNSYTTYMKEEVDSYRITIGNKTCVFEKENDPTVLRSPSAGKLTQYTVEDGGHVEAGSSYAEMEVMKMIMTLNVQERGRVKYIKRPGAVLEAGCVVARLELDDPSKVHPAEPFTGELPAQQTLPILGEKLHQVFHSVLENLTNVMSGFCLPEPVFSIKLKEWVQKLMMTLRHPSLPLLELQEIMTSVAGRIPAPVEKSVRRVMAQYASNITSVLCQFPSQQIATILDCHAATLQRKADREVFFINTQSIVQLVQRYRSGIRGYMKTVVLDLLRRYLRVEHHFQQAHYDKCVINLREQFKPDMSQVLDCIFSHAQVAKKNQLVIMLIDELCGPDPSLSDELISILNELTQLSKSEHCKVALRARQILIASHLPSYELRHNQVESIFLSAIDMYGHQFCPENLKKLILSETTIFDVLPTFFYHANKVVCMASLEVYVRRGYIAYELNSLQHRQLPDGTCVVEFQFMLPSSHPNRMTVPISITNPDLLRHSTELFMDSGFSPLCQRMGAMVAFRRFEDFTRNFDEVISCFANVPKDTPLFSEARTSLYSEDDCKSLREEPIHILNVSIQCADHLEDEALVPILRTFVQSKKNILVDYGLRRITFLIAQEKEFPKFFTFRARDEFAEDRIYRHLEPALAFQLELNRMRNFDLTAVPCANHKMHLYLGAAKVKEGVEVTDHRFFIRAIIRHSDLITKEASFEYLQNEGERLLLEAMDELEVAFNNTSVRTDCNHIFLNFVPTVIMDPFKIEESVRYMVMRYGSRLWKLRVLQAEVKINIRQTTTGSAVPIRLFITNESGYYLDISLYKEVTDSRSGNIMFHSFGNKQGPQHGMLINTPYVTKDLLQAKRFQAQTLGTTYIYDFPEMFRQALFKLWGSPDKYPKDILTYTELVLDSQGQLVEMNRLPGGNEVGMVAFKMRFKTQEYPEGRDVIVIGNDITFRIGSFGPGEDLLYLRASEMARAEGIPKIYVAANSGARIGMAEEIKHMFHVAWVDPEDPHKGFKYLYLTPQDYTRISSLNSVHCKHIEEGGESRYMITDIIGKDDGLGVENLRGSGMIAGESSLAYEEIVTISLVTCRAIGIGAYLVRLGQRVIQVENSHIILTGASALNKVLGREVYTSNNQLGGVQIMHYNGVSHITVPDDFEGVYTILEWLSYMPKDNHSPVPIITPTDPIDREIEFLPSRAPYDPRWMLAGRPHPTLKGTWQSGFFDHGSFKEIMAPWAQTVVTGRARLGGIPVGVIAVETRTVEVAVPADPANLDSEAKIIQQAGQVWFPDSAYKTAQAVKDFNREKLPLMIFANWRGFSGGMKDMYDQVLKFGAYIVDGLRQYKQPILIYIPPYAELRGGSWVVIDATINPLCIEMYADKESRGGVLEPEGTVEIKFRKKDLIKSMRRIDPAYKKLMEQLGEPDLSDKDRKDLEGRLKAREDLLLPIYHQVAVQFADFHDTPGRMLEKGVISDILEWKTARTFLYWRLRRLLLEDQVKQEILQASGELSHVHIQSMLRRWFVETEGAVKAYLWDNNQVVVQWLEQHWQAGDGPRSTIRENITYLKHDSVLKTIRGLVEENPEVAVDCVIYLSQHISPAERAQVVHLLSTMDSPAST
row,SMILES,IC50
1,"C[C@H](NC(=O)C1CC1)c1ccc(O[C@@H]2CCN(c3ccnc(N(C)CC(F)F)n3)C2)cc1 [Example 2.1, N—((S)-1-(4-((R)-1-(2-((2,2-difluoroethyl)(methyl)amino)pyrimidin-4-yl)pyrrolidin-3-yloxy)phenyl)ethyl)cyclopropanecarboxamide]",0.065 µM

# Same assay, conditions: hACC2 construct lacking 128 N-terminal amino acids; coupled lactate dehydrogenase/pyruvate kinase reaction, 340 nm, 25° C.
row,IC50,SMILES
1,2.36 µM,CC(=O)N[C@@H](C)c1ccc(O[C@@H]2CCN(c3ncc(C4CCC4)cn3)C2)cc1 [Example 6.17]
2,0.188 µM,CC(=O)N[C@@H](C)c1ccc(O[C@@H]2CCN(c3ncnc(N4CCC(C)(O)C4)c3F)C2)cc1 (stereo partly shown) [Example 8.269]
3,0.24 µM,CC(=O)N[C@@H](C)c1ccc(O[C@@H]2CCN(c3ncnc(N4CCC[C@@H]4C)c3F)C2)cc1 [Example 8.284]
4,0.874 µM,CC(=O)N[C@@H](C)c1ccc(O[C@@H]2CCN(c3nc(N(CCO)C4CC4)ncc3F)C2)cc1 [Example 8.288]
5,0.379 µM,CC(=O)N[C@@H](C)c1ccc(O[C@@H]2CCN(c3ccnc(N4CC[C@H](F)C4)n3)C2)cc1 [Example 8.265]
6,0.879 µM,CC(=O)N[C@@H](C)c1ccc(O[C@@H]2CCN(c3cc(OCC(F)(F)F)ncn3)C2)cc1 [Example 7.9]
7,0.22 µM,C[C@H](NC(=O)c1cncs1)c1ccc(O[C@@H]2CCN(c3ncc(OCC4CC4(F)F)cn3)C2)cc1 (stereo partly shown) [Example 6.15]
8,0.116 µM,CC(=O)N[C@@H](C)c1ccc(O[C@@H]2CCN(c3ncnc(N4CC(F)(F)C4)c3Cl)C2)cc1 [Example 8.111]
9,0.595 µM,COC(C)(C)COc1ncnc(N2CC[C@@H](Oc3ccc([C@H](C)NC(C)=O)cc3)C2)c1F [Example 7.46]
10,0.176 µM,CC(=O)N[C@@H](C)c1ccc(O[C@@H]2CCN(c3ncnc(NCC4(O)CC4)c3Cl)C2)cc1 [Example 8.305]
11,0.128 µM,CC(=O)N[C@@H](C)c1ccc(O[C@@H]2CCN(c3ccnc(N4[C@H](C)COC[C@H]4C)n3)C2)cc1 [Example 8.87]
12,0.359 µM,CC(=O)N[C@@H](C)c1ccc(O[C@@H]2CCN(c3ncnc(NCC4(O)CCC4)c3F)C2)cc1 [Example 8.292]
13,0.093 µM,CC(=O)N[C@@H](C)c1ccc(O[C@@H]2CCN(c3nc(N(C)C4CC4)ncc3Cl)C2)cc1 [Example 8.145]
14,0.12 µM,CCNC(=O)N[C@@H](C)c1ccc(OC2CCN(c3ncnc(OCC4CC4)c3F)C2)cc1 (stereo partly shown) [Example 3.14]
15,0.649 µM,CCCOc1cc(N2CC[C@@H](Oc3ccc([C@H](C)NC(C)=O)cc3)C2)ncn1 [Example 7.2]
16,0.286 µM,CC(=O)N[C@@H](C)c1ccc(O[C@@H]2CCN(c3ccnc(N(C)CC4CCOC4)n3)C2)cc1 (stereo partly shown) [Example 8.41]
17,0.534 µM,CC(=O)N[C@@H](C)c1ccc(O[C@@H]2CCN(c3nc(N4CCc5nocc5C4)ncc3F)C2)cc1 [Example 8.238]
18,0.219 µM,COCCN(C)c1nccc(N2CC[C@@H](Oc3ccc([C@H](C)NC(C)=O)cc3)C2)n1 [Example 8.49]
19,0.112 µM,CCC(=O)Nc1nc(C)c(C(=O)N[C@@H](C)c2ccc(O[C@@H]3CCN(c4ncnc(OCC5CC5)c4OC)C3)cc2)s1 [Example 7.63]
20,0.12 µM,CC(=O)N[C@@H](C)c1ccc(O[C@@H]2CCN(c3ncnc(N4CCCC4)c3Cl)C2)cc1 [Example 8.103]
21,0.11 µM,CC(=O)N[C@@H](C)c1ccc(O[C@@H]2CCN(c3nc(N(C)CCC(F)(F)F)ncc3Cl)C2)cc1 [Example 8.247]
22,0.935 µM,CC(=O)N[C@@H](C)c1ccc(O[C@@H]2CCN(c3ncc(C4CCCC4)cn3)C2)cc1 [Example 6.18]

row,IC50,SMILES
1,0.672 µM,CC(=O)N[C@@H](C)c1ccc(O[C@@H]2CCN(c3ncnc(N(C)CCC#N)c3F)C2)cc1 [Example 8.137]
2,0.342 µM,CC(=O)N[C@@H](C)c1ccc(O[C@@H]2CCN(c3ncnc(C4CCC4)c3F)C2)cc1 [Example 9.3]
3,0.125 µM,CC(=O)N[C@@H](C)c1ccc(O[C@@H]2CCN(c3nc(N(C)CC4CCOC4)ncc3Cl)C2)cc1 (stereo partly shown) [Example 8.54]
4,0.742 µM,CCCNc1ncnc(N2CC[C@@H](Oc3ccc([C@H](C)NC(=O)c4sc(NC(=O)CC)nc4C)cc3)C2)c1OC [Example 8.320]
5,0.115 µM,COCC(=O)Nc1nc(C)c(C(=O)N[C@@H](C)c2ccc(OC3CCN(c4ccnc(N(C)CC(F)F)n4)C3)cc2)s1 (stereo partly shown) [Example 2.11]
6,1.35 µM,CCCN(C)c1ccnc(N2CC[C@@H](Oc3ccc([C@H](C)NC(C)=O)cc3)C2)n1 [Example 6.22]
7,0.059 µM,"CCN(C)c1nccc(N2CC[C@@H](Oc3ccc([C@H](C)NC(=O)C(F)F)cc3)C2)n1 [Example 5.1, N—((S)-1-(4-((R)-1-(2-(ethyl(methyl)amino)pyrimidin-4-yl)pyrrolidin-3-yloxy)phenyl)ethyl)-2,2-difluoroacetamide]"
8,0.489 µM,CC(=O)N[C@@H](C)c1ccc(O[C@@H]2CCN(c3ccnc(N4CCC(C#N)C4)n3)C2)cc1 (stereo partly shown) [Example 8.77]
9,0.079 µM,COCCN(C)c1ncc(Cl)c(N2CC[C@@H](Oc3ccc([C@H](C)NC(C)=O)cc3)C2)n1 [Example 8.130]
10,1.19 µM,CC(=O)N[C@@H](C)c1ccc(O[C@@H]2CCN(c3nc(N4CC5COCC5C4)ncc3F)C2)cc1 (stereo partly shown) [Example 8.272]
11,0.105 µM,CC(=O)N[C@@H](C)c1ccc(O[C@@H]2CCN(c3ncnc(OC(C)C)c3Cl)C2)cc1 [Example 7.52]
12,0.245 µM,CCN(C)c1nccc(N2CCC(Oc3ccc([C@H](C)NC(=O)c4sc(NC(C)=O)nc4C)cc3)C2)n1 (stereo partly shown) [Example 2.8]
13,0.628 µM,CC(=O)N[C@@H](C)c1ccc(O[C@@H]2CCN(c3ccnc(N4CCC4)n3)C2)cc1 [Example 8.40]
14,0.299 µM,CC(=O)N[C@@H](C)c1ccc(O[C@@H]2CCN(c3ncnc(N(C)C4CC4)c3F)C2)cc1 [Example 8.133]
15,0.14 µM,CCOc1ncnc(N2CC[C@@H](Oc3ccc([C@H](C)NC(C)=O)cc3)C2)c1Cl [Example 7.22]
16,0.506 µM,CC(=O)N[C@@H](C)c1ccc(O[C@@H]2CCN(c3nc(N(CCO)C4CC4)ncc3Cl)C2)cc1 [Example 8.211]
17,0.389 µM,CCN(CCO)c1ncc(Cl)c(N2CC[C@@H](Oc3ccc([C@H](C)NC(C)=O)cc3)C2)n1 [Example 8.178]
18,0.83 µM,CC(=O)N[C@@H](C)c1ccc(O[C@@H]2CCN(c3ncc(OC(C)C)cn3)C2)cc1 [Example 6.6]
19,1.03 µM,CC(=O)N[C@@H](C)c1ccc(O[C@@H]2CCN(c3nc(N(C)CCO)ncc3Cl)C2)cc1 [Example 8.248]
20,0.455 µM,C[C@H](NC(=O)c1cn[nH]c1)c1ccc(OC2CCN(c3ccnc(N4CCOCC4)n3)C2)cc1 (stereo partly shown) [Example 2.7]
21,0.048 µM,Cc1oncc1C(=O)N[C@@H](C)c1ccc(OC2CCN(c3ncnc(OCC4CC4)c3F)C2)cc1 (stereo partly shown) [Example 2.22]
22,0.109 µM,CC(=O)N[C@@H](C)c1ccc(O[C@@H]2CCN(c3ncnc(N4CCC(F)(F)C4)c3F)C2)cc1 [Example 8.140]

row,IC50,SMILES
1,0.09 µM,CC(=O)N[C@@H](C)c1ccc(O[C@@H]2CCN(c3ncnc(N(C)C4CCCC4)c3F)C2)cc1 [Example 8.125]
2,0.174 µM,CCN(CC)c1nccc(N2CC[C@@H](Oc3ccc([C@H](C)NC(C)=O)cc3)C2)n1 [Example 8.24]
3,0.041 µM,CC(=O)N[C@@H](C)c1ccc(O[C@@H]2CCN(c3nc(N(C)C4CCC4)ncc3F)C2)cc1 [Example 8.190]
4,0.78 µM,CC(=O)N[C@@H](C)c1ccc(O[C@@H]2CCN(c3nc(OCC(C)C)ncc3F)C2)cc1 [Example 7.14]
5,0.138 µM,CC(=O)N[C@@H](C)c1ccc(O[C@@H]2CCN(c3nc(N4CCC(C)C4)ncc3Cl)C2)cc1 (stereo partly shown) [Example 8.142]
6,0.065 µM,C[C@H](NC(=O)C(F)F)c1ccc(OC2CCN(c3ncnc(OCC4CC4)c3F)C2)cc1 (stereo partly shown) [Example 5.3]
7,0.155 µM,CC(=O)N[C@@H](C)c1ccc(O[C@@H]2CCN(c3nc(N4[C@H](C)CCC[C@H]4C)ncc3Cl)C2)cc1 [Example 8.173]
8,0.17 µM,CC(=O)N[C@@H](C)c1ccc(O[C@@H]2CCN(c3nc(N4CCCC4(C)C)ncc3F)C2)cc1 [Example 8.271]
9,0.485 µM,CC(=O)N[C@@H](C)c1ccc(O[C@@H]2CCN(c3ccnc(N4CC[C@H](F)C4)n3)C2)cc1 [Example 8.230]
10,0.065 µM,CC(=O)N[C@@H](C)c1ccc(O[C@@H]2CCN(c3nc(N(C)CC(F)F)ncc3F)C2)cc1 [Example 8.27]
11,0.723 µM,CCC(=O)Nc1nc(C)c(C(=O)N[C@@H](C)c2ccc(O[C@@H]3CCN(c4ncnc(OCC(C)(C)O)c4Cl)C3)cc2)s1 [Example 7.66]
12,0.277 µM,CCOc1ncnc(N2CC[C@@H](Oc3ccc([C@H](C)NC(C)=O)cc3)C2)c1OC [Example 7.44]
13,0.127 µM,CC(=O)N[C@@H](C)c1ccc(O[C@@H]2CCN(c3ncnc(N4CC(F)(F)C(F)(F)C4)c3F)C2)cc1 [Example 8.231]
14,0.429 µM,CC(=O)N[C@@H](C)c1ccc(O[C@@H]2CCN(c3ncnc(N4CCOCC4)c3F)C2)cc1 [Example 8.143]
15,0.547 µM,CC(=O)Nc1nc(C)c(C(=O)N[C@@H](C)c2ccc(OC3CCN(c4ccnc(N5CCOCC5)n4)C3)cc2)s1 (stereo partly shown) [Example 2.3]
16,0.358 µM,CC(=O)N[C@@H](C)c1ccc(O[C@@H]2CCN(c3ncnc(N4CCCC4(C)C)c3F)C2)cc1 [Example 8.250]
17,0.198 µM,CC(=O)N[C@@H](C)c1ccc(O[C@@H]2CCN(c3ncnc(N(C)C[C@H]4CCCO4)c3F)C2)cc1 [Example 8.148]
18,0.245 µM,CC(=O)N[C@@H](C)c1ccc(O[C@@H]2CCN(c3nc(N(C)CC4CCOC4)ncc3Br)C2)cc1 (stereo partly shown) [Example 8.61]
19,0.819 µM,CC(=O)N[C@@H](C)c1ccc(O[C@@H]2CCN(c3ncc(C(C)(C)C)cn3)C2)cc1 [Example 6.24]
20,0.109 µM,CC(=O)N[C@@H](C)c1ccc(O[C@@H]2CCN(c3ncnc(OCC(F)F)c3Cl)C2)cc1 [Example 7.57]
21,0.51 µM,CC(=O)N[C@@H](C)c1ccc(O[C@@H]2CCN(c3nc(NCC(F)F)ncc3F)C2)cc1 [Example 8.304]
22,0.204 µM,CC(=O)N[C@@H](C)c1ccc(O[C@@H]2CCN(c3nc(N4CCOC(C)C4)ncc3Cl)C2)cc1 (stereo partly shown) [Example 8.186]
